Experimental data reported in patent US8084592B2, “Multivalent entrain-and-amplify immunotherapeutics for carcinoma” (MannKind Corporation, priority 2005, dated 2011).
“Also recorded” adds a separate entry of the source. Non-standard residues stand in square brackets, D forms with d. No end group written: not given here. Nle = CCCC[C@H](N)C(=O)O; Nva = CCC[C@H](N)C(=O)O

Key:
MHC class I (A2.1) = MHC class I (A2.1) (Homo sapiens, UniProt P04439, D140Y/D185E/D98H/E176V/E277Q/G131W/G231S/I119V/I121R/I166T/I218V/L300P/L318F/N151K/N90K/P208A/P217A/Q86G/Q94H/R138H/R169H/T345S); assay: Binding characteristics (affinity, stability) of PSMA288-297 and analogs
[1] = system: T cells that recognized native PSMA288-297 peptide; assay: Cross-reactive immunogenicity of PSMA288-297 analogs, IFN-γ ELISPOT; type: in vivo, HHD transgenic mice; details: 25 μg peptide + 12.5 μg pI:C per lymph node, day 0, 3, 14, 17
Method: Groups of HHD transgenic mice (n=8) were immunized with peptide (natural epitope PSMA288-297, or analogs bearing substitutions at primary or secondary anchor residues) by direct inoculation into the inguinal lymph nodes, with 25 μg in […]+12.5 μg of pI:C to each lymph node at day 0, 3, 14 and 17.
Mice were sacrificed at 10 days after the last boost, and splenocytes prepared and assessed for IFN-γ production by ELISPOT analysis. Various numbers of splenocytes/well were stimulated with 10 μg/ml of native peptide in ELISPOT plates coated with anti-IFN-γ antibody. At 48 hours after incubation, the assay was developed and the frequency of cytokine-producing T cells that recognized native PSMA288-297 peptide was automatically counted. The data is represented in FIG. 15 as the number of spot forming colonies/well (mean of triplicates+SD).

[2] = system: T cell line specific for the native epitope; assay: Cross-reactivity of PSMA288-297 analogs: IFN-gamma secretion from T cell line; type: cell-based, HHD transgenic mice; details: stimulating with 10 μg/ml of analog (approximately 10 μM)
Source text: A methodology was devised to allow rapid and rational screening of peptide analogs in a fashion coherent with proposed methods of use and modeling the overall immunologic properties (Kon and Koff relative to MHC interaction and TCR binding properties in an integrated fashion). In some instances, the method included generating T cell lines against a natural (non-mutated) epitope (SSX-241-49), and using an immunization strategy potent enough to generate a useful response in transgenic mice carrying human MHC (such as the A2 allele). Peptide analogs were interrogated ex vivo in the presence of competent APCs and the functional impact of T cells specific for natural (non-mutated) epitopes measured. The evaluation was done at various concentrations of analog, because the expected effect was biphasic in the case of cross reactive peptides (activating at limited concentrations and inhibiting at higher concentrations, due to antigen-induced cell death, AICD). Measurement of the following three parameters were used to define basic and useful characteristics of peptide analogs: • 1. […]
The method used for the generation of T cell lines was the following: HHD transgenic mice carrying an A2 human allele (Pascolo et al., J. Exp Med. 185(12):2043-51, 1997, which is hereby incorporated herein by reference in its entirety) were immunized with 50 μg of SSX-2 natural epitope (41-49) admixed with 25 μg of plpC at day 0, 4, 14 and 18 by bilateral administration into the inguinal lymph nodes. […] The supernatant was harvested and the concentration of IFN-gamma assessed by standard methods such as ELISA.
Using the procedures described in application Ser. Nos. 11/455,278 and 11/454,633, each of which is hereby incorporated by reference in its entirety, the binding characteristics of PSMA288-297 and analogs were assessed in comparison to each other see (see FIG. 12). […] Cross reactivity with the native epitope was assessed by using the analog peptides to stimulate IFN-gamma secretion from a T cell line specific for the native epitope, essentially as described in Example 12. […]

[3] = system: T cell line specific for the native epitope; assay: Cross-reactivity of PRAME425-433 analogs: IFN-gamma secretion from T cell line; type: cell-based, HHD transgenic mice; details: analog peptide at approximately 0.3 μM, normalized to native peptide
Source text: A methodology was devised to allow rapid and rational screening of peptide analogs in a fashion coherent with proposed methods of use and modeling the overall immunologic properties (Kon and Koff relative to MHC interaction and TCR binding properties in an integrated fashion). In some instances, the method included generating T cell lines against a natural (non-mutated) epitope (SSX-241-49), and using an immunization strategy potent enough to generate a useful response in transgenic mice carrying human MHC (such as the A2 allele). Peptide analogs were interrogated ex vivo in the presence of competent APCs and the functional impact of T cells specific for natural (non-mutated) epitopes measured. […]
The method used for the generation of T cell lines was the following: HHD transgenic mice carrying an A2 human allele (Pascolo et al., J. Exp Med. 185(12):2043-51, 1997, which is hereby incorporated herein by reference in its entirety) were immunized with 50 μg of SSX-2 natural epitope (41-49) admixed with 25 μg of plpC at day 0, 4, 14 and 18 by bilateral administration into the inguinal lymph nodes. […] The supernatant was harvested and the concentration of IFN-gamma assessed by standard methods such as ELISA. […]

[4] = system: splenocytes responding to the PRAME425-433 peptide; assay: Cross-reactive immunogenicity of PRAME analog, IFN-γ ELISA of splenocytes; type: in vivo, HHD transgenic mice; details: pCTLR2 plasmid prime, peptide boost 2.5 μg day 28 and 31, versus native peptide boost
Method: This was followed by two peptide boosts (2.5 μg) at day 28 and 31, of native peptide or the PRAME epitope analog L426Nva L433Nle.
Mice were sacrificed at 10 days after the last boost, and splenocytes prepared and assessed for IFN-γ production after in vitro stimulation at 0.5×10^6 cells/well, with 10 μg/ml of native peptide.

HLA-A*0201 = HLA-A*0201 (Homo sapiens, UniProt P04439, D140Y/D185E/D98H/E176V/E277Q/G131W/G231S/I119V/I121R/I166T/I218V/L300P/L318F/N151K/N90K/P208A/P217A/Q86G/Q94H/R138H/R169H/T345S); assay: HLA-A*0201 binding characteristics of PRAME425-433 and analogs
Method: The positive control for binding was melan-A26-35 A27L. […] Cross reactivity with the native epitope was assessed by using the analog peptides to stimulate IFN-gamma secretion from a T cell line specific for the native epitope, essentially as described in Example 12. The data shown in FIGS. 16-18 were generated by stimulating with analog peptide at approximately 0.3 μM. […] In some cases, the reported values are the average of two determinations.

Row | Substance | immunogenicity against the native epitope [1] | IFN-gamma production (cross-reactivity) compared to native peptide [2] | IFN-γ production (cross-reactivity) compared to native peptide [3] | also measured
1 | GLPSIPVHPI (homo sapien) [PSMA288-297, reference compound] | poorly immunogenic; also recorded: poor immunogenicity |  |  | binding characteristics (MHC class I (A2.1)): generally superior binding characteristics
2 | GLPSIPVHPV [PSMA288-297 I297V] | increased priming of immune responses against the native epitope | increased the amount of IFN-gamma produced |  | 
3 | PRAME425-433 C-terminal amide: PRAME425-433 with carboxy-terminus modified by the addition of an amide group (SLLQHLIGL-NH2) |  |  | within twofold of the native peptide | 
4 | PSMA288-297 P1 Abu: PSMA288-297 analog, Abu at P1 | slightly higher (but significant) activity than the native peptide | marginally similar cross-reactivity |  | 
5 | PSMA288-297 PO Nva: PSMA288-297 analog, Nva at PO | slightly higher (but significant) activity than the native peptide | increased the amount of IFN-gamma produced |  | stability of binding (half-time of dissociation) compared to native peptide (MHC class I (A2.1)): improved the stability of binding
6 | SNvaLQHLIGNle (S[Nva]LQHLIG[Nle]) [L426Nva L433Nle] |  |  | significant level of cross-reactivity | IFN-γ production in response to the PRAME425-433 peptide (ELISA) [4]: significant enhancement of IFN-γ production; binding characteristics (affinity and stability) (HLA-A*0201): similar, somewhat improved binding characteristics
